Measurements as given in patent US12486267B2, “Imidazo[1,2-A]pyridine and [1,2,4]triazolo[1,5-A]pyridine derivatives as TLR9 inhibitors for the treatment of fibrosis” (BRISTOL-MYERS SQUIBB COMPANY, priority 2020, dated 2025).

Experiments:
Type in all cases: cell-based
human TLR7 = molecular target: T1, human TLR7 (Homo sapiens, UniProt Q9NYK1); assay: TLR7 inhibition reporter assay (HEK-Blue cells, SEAP reporter); details: HEK-Blue cells overexpressing human TLR7; stimulated with gardiquimod 7.5 μM; 22 hour incubation; SEAP readout
T1 sequence (Q9NYK1 27-1049): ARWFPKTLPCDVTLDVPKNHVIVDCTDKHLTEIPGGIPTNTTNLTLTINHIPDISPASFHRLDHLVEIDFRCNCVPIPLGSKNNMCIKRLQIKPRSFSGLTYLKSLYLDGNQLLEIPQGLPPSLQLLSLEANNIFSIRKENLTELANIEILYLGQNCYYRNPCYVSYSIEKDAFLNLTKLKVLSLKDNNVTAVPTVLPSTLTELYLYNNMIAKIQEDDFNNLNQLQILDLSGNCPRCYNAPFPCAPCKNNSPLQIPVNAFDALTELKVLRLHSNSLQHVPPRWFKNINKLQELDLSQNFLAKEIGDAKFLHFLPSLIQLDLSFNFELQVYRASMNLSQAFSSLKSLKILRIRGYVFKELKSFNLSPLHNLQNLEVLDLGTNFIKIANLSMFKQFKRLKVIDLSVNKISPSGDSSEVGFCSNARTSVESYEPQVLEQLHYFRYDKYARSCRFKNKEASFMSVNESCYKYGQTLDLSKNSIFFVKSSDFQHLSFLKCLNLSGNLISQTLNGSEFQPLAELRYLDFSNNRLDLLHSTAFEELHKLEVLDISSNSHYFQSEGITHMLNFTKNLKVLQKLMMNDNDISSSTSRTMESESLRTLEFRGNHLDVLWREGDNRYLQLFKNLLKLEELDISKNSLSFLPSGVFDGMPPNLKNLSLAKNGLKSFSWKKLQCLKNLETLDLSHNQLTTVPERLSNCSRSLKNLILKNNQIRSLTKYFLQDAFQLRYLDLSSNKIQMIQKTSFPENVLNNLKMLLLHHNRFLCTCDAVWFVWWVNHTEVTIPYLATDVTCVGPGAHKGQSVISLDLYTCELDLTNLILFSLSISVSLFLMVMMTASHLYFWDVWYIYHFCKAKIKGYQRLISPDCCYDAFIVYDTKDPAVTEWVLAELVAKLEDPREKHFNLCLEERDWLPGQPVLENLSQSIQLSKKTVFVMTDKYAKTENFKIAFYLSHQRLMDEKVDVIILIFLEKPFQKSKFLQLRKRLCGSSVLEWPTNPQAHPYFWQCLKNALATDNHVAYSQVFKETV
In short: (§1)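 HEK-Blue cells with an NF-κB/AP-1-driven SEAP reporter were pre-treated 30 min at room temperature with compound (0.05 nM–50 μM), then stimulated with gardiquimod 7.5 μM (TLR7), R848 15.9 μM (TLR8) or ODN2006 5 nM (TLR9). After 22 h at 37 °C, SEAP was read; % inhibition was referenced to agonist+DMSO and known-inhibitor wells.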

human TLR8 = molecular target: T2, human TLR8 (Homo sapiens, UniProt Q9NR97); assay: TLR8 inhibition reporter assay (HEK-Blue cells, SEAP reporter); details: HEK-Blue cells overexpressing human TLR8; stimulated with R848 15.9 μM; 22 hour incubation; SEAP readout
T2 sequence (Q9NR97 27-1041): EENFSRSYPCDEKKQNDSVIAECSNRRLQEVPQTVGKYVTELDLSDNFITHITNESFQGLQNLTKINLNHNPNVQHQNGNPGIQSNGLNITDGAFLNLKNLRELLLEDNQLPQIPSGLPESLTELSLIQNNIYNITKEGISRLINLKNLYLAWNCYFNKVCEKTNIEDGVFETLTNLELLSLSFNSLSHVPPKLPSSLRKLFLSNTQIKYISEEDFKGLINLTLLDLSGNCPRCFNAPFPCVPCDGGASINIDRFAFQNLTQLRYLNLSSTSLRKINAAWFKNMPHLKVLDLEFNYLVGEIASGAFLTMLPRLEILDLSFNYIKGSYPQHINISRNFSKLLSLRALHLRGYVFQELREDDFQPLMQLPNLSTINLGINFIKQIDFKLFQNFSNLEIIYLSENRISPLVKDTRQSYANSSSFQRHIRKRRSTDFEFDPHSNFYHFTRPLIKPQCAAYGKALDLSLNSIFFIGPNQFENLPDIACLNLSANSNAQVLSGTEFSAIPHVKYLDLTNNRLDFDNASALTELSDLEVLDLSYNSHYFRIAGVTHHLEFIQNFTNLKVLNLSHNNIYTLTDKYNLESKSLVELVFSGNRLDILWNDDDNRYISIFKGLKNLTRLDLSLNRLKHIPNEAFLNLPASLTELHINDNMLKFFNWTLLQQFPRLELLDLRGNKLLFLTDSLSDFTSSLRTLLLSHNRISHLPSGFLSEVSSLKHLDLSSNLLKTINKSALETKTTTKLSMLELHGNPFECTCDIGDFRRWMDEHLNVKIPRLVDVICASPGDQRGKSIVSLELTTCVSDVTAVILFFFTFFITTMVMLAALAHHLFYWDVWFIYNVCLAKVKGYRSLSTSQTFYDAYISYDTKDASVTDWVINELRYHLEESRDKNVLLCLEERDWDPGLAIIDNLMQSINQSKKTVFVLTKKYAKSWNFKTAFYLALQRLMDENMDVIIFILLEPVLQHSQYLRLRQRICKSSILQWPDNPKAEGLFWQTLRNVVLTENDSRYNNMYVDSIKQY
Method: TLR7/8/9 Inhibition Reporter Assays
HEK-Blue™-cells (Invivogen) overexpressing human TLR7, TLR8 or TLR9 receptors were used for screening inhibitors of these receptors using an inducible SEAP (secreted embryonic alkaline phosphatase) reporter gene under the control of the […] minimal promoter fused to five NF-κB and AP-1-binding sites. Briefly, cells are seeded into Greiner 384 well plates (15000 cells per well for TLR7, 20,000 for TLR8 and 25,000 for TLR9) and then treated with test compounds in DMSO to yield a final dose response concentration range of 0.05 nM-50 μM. After a 30 minute compound pre-treatment at room temperature, the cells are then stimulated with a TLR7 ligand (gardiquimod at a final concentration of 7.5 μM), TLR8 ligand (R848 at a final concentration of 15.9 μM) or TLR9 ligand (ODN2006 at a final concentration of 5 nM) to activate NF-κB and AP-1 which induce the production of SEAP. After a 22 hour incubation at 37° C., 5% CO2, SEAP levels are determined with the addition of HEK-Blue™ Detection reagent (Invivogen), a cell culture medium that allows for detection of SEAP, according to manufacturer's specifications. The percent inhibition is determined as the % reduction in the HEK-Blue signal present in wells treated with agonist plus DMSO alone compared to wells treated with a known inhibitor.

human TLR9 = molecular target: T3, human TLR9 (Homo sapiens, UniProt Q9NR96); assay: TLR9 inhibition reporter assay (HEK-Blue cells, SEAP reporter); details: HEK-Blue cells overexpressing human TLR9; stimulated with ODN2006 5 nM; 22 hour incubation; SEAP readout
T3 sequence (Q9NR96 26-1032): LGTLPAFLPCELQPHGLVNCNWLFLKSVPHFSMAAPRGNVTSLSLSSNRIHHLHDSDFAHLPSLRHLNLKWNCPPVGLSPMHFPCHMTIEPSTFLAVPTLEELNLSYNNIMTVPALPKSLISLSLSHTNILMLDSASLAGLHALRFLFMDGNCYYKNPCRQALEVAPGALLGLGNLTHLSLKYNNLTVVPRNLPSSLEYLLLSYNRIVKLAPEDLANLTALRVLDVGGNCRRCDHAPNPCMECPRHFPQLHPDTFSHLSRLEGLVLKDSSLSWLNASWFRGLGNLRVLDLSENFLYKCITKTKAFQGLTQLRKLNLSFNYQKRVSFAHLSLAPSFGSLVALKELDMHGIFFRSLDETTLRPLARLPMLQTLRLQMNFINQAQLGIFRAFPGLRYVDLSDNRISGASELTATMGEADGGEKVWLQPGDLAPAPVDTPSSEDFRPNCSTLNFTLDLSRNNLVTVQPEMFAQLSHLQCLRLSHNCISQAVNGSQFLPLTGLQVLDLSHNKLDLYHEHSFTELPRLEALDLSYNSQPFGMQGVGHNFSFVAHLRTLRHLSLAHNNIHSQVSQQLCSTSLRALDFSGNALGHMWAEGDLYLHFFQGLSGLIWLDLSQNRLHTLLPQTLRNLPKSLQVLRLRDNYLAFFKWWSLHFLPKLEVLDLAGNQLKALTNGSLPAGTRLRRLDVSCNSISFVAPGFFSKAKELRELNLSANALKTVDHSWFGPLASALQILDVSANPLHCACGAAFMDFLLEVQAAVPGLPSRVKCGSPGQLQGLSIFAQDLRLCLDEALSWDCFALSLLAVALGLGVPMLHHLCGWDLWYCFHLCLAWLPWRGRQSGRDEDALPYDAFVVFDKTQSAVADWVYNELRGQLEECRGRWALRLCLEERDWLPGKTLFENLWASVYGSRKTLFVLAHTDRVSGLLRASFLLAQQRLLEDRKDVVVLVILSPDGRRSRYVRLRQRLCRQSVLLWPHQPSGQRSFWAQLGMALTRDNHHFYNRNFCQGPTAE
In short: as §1

Structure (SMILES) | IC50 (human TLR7) [µM] | IC50 (human TLR8) [µM] | IC50 (human TLR9) [µM]
COc1ccc(-c2cn3cc(C4CC5CCC(C4)N5C4CCN(C5CC5)CC4)cc(C)c3n2)cc1OC (single isomer, unassigned) [Example 26, 6-(8-(1-cyclopropylpiperidin-4-yl)-8-azabicyclo[3.2.1]octan-3-yl)-2-(3,4-dimethoxyphenyl)-8-methylimidazo[1,2-a]pyridine] | 2 | > 50 | 0.086
COc1ccc(-c2cn3c(n2)CCC(C2CCN(C4CCN(CC(C)C)CC4)CC2)C3)cc1OC (single isomer, unassigned) [Example 32, 2-(3,4-dimethoxyphenyl)-6-(1′-isobutyl-[1,4′-bipiperidin]-4-yl)-5,6,7,8-tetrahydroimidazo[1,2-a]pyridine] | 2.8 | > 50 | 0.038
COc1ccc(-c2cn3c(n2)CCC(C2CCN(C4CCN(CC(C)C)CC4)CC2)C3)cc1OC (single isomer, unassigned) [Example 33, 2-(3,4-dimethoxyphenyl)-6-(1′-isobutyl-[1,4′-bipiperidin]-4-yl)-5,6,7,8-tetrahydroimidazo[1,2-a]pyridine] | 3.1 | > 50 | 0.056
COc1ccc(-c2cn3c(n2)CCC(C2CCN(C4CCN(C(C)C)CC4)CC2)C3)cc1OC (single isomer, unassigned) [Example 35, 2-(3,4-dimethoxyphenyl)-6-(1′-isopropyl-[1,4′-bipiperidin]-4-yl)-5,6,7,8-tetrahydroimidazo[1,2-a]pyridine] | 13 | > 50 | 0.042
COc1ccc(-c2cn3c(n2)CCC(C2CCN(C4CCN(C(C)C)CC4)CC2)C3)cc1OC (single isomer, unassigned) [Example 36, 2-(3,4-dimethoxyphenyl)-6-(1′-isopropyl-[1,4′-bipiperidin]-4-yl)-5,6,7,8-tetrahydroimidazo[1,2-a]pyridine] | 7.8 | > 50 | 0.057
COc1ccc(-c2cn3c(n2)CCC(C2CCN(C4CCN(C5CC5)CC4)CC2)C3)cc1OC (single isomer, unassigned) [Example 37, 6-(1′-cyclopropyl-[1,4′-bipiperidin]-4-yl)-2-(3,4-dimethoxyphenyl)-5,6,7,8-tetrahydroimidazo[1,2-a]pyridine] | 4 | > 50 | 0.062
COc1ccc(-c2cn3c(n2)CCC(C2CCN(C4CCN(C5CC5)CC4)CC2)C3)cc1OC (single isomer, unassigned) [Example 38, 6-(1′-cyclopropyl-[1,4′-bipiperidin]-4-yl)-2-(3,4-dimethoxyphenyl)-5,6,7,8-tetrahydroimidazo[1,2-a]pyridine] | 6 | > 50 | 0.045
COc1ccc(-c2cn3c(n2)CCC(C2CCN(C4CCN(C(=O)C(C)C)CC4)CC2)C3)cc1OC (single isomer, unassigned) [Example 40, 1-(4-(2-(3,4-dimethoxyphenyl)-5,6,7,8-tetrahydroimidazo[1,2-a]pyridin-6-yl)-[1,4′-bipiperidin]-1′-yl)-2-methylpropan-1-one] | 38 | > 50 | 0.185
COc1ccc(-c2cn3c(n2)CCC(C2CCN(C4CCN(C(=O)C(C)C)CC4)CC2)C3)cc1OC (single isomer, unassigned) [Example 41, 1-(4-(2-(3,4-dimethoxyphenyl)-5,6,7,8-tetrahydroimidazo[1,2-a]pyridin-6-yl)-[1,4′-bipiperidin]-1′-yl)-2-methylpropan-1-one] | > 50 | > 50 | 0.161
COc1ccc(-c2cn3c(n2)CCC(C2CCN(C4CCN(C(=O)C5CC5)CC4)CC2)C3)cc1OC (single isomer, unassigned) [Example 43, cyclopropyl(4-(2-(3,4-dimethoxyphenyl)-5,6,7,8-tetrahydroimidazo[1,2-a]pyridin-6-yl)-[1,4′-bipiperidin]-1′-yl)methanone] | 45 | > 50 | 0.375
